Assay results published in the NIST ThermoML archive (doi:10.1016/j.fluid.2011.05.017).

Assay: wn = mass fraction of the nth substance listed
Settings: 101 kPa, Liquid; for viscosity: Capillary tube (Ostwald / Ubbelohde) method; for mass density: Vibrating tube method

CCC(C)O (stereo not drawn) [butan-2-ol] + O
Settings | mass density, 298.15 K [kg/m3] | mass density, 303.15 K [kg/m3] | mass density, 308.15 K [kg/m3] | viscosity, 298.15 K [mPa·s] | viscosity, 303.15 K [mPa·s] | viscosity, 308.15 K [mPa·s]
w1 = 0.7 | 863.8 | 859.6 | 855.1 | 3.342 | 2.795 | 2.377
w1 = 0.8 | 843.6 | 839.2 | 834.8 | 3.098 | 2.608 | 2.216
w1 = 0.9 | 822.8 | 818.8 | 813.5 | 2.812 | 2.375 | 2.029
